Assay results published in paper PMC9090415, “Discovery of small molecule inhibitors of Plasmodium falciparum apicoplast DNA polymerase” (Journal of Enzyme Inhibition and Medicinal Chemistry, 2022).
pIC50: −log10 of the molar value.

Molecular target: P. falciparum apicoplast DNA polymerase (Pf-apPOL) (Plasmodium falciparum, UniProt Q8ILY1)
Assay: Fluorescence-based high-throughput DNA polymerase assay (molecular beacon), primary screen and dose-response;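 on % inhibition ApPOL 90': test concentration in µM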;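 on % inhibition apPOL 180': test concentration in µM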
Format: biochemical
Outline: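 Single-point screening used 10 µM compound with 20 nM polymerase, 20 nM hairpin substrate and 6 µM dNTPs for 90 min at 25 °C. Confirmatory titrations (2.5–80 µM) followed fluorescence at three times, and IC50 was derived from a fit including a cooperativity term n.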

[1] = supplemental file 2, sheet IC50 nontoxic compounds; Pf-apPOL

Chain of P. falciparum apicoplast DNA polymerase (Pf-apPOL) (Q8ILY1 entry or part of it): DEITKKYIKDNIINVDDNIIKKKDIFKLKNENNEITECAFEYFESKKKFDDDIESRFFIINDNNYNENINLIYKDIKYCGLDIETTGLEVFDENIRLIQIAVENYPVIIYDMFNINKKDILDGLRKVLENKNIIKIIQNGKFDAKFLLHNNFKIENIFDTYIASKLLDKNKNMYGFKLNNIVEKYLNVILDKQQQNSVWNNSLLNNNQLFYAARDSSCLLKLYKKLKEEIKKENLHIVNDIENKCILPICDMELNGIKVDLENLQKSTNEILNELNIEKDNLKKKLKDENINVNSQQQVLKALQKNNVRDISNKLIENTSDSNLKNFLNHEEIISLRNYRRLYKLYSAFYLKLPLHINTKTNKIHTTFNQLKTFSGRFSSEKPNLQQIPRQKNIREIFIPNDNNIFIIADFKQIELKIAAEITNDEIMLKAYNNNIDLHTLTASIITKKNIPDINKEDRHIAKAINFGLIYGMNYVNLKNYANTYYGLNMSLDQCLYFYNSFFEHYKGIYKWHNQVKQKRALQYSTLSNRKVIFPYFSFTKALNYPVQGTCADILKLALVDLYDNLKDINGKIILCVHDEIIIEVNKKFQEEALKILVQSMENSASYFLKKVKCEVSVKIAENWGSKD

C=CCOc1c(Br)cc(Br)cc1/C=C1\SC(=N)NC1=O [KU0051640]
DNA Pol ('DNA Pol' of the 186 hits list (screen value); 90 min, 10 µM): 26
% inhibition Apo pol 10' (DRC-1; 10'; conc 2.5): 4.163%
% inhibition Apo pol 10' (DRC-1; 10'; conc 5): -1.099%
% inhibition Apo pol 10' (DRC-1; 10'; conc 10): 11.4088%
% inhibition Apo pol 10' (DRC-1; 10'; conc 20): 46.0852%
% inhibition Apo pol 10' (DRC-1; 10'; conc 40): 88.1194%
% inhibition Apo pol 10' (DRC-1; 10'; conc 80): 94.2659%
% inhibition Apol 90' (DRC-1; 90'; conc 2.5): 2.139%
% inhibition Apol 90' (DRC-1; 90'; conc 5): -4.076%
% inhibition Apol 90' (DRC-1; 90'; conc 10): 7.3276%
% inhibition Apol 90' (DRC-1; 90'; conc 20): 38.2187%
% inhibition Apol 90' (DRC-1; 90'; conc 40): 86.7215%
% inhibition Apol 90' (DRC-1; 90'; conc 80): 95.0722%
% inhibition apPOL 180' (DRC-1; 180'; conc 2.5): -0.2194%
% inhibition apPOL 180' (DRC-1; 180'; conc 5): -7.333%
% inhibition apPOL 180' (DRC-1; 180'; conc 10): 0.9345%
% inhibition apPOL 180' (DRC-1; 180'; conc 20): 26.8822%
% inhibition apPOL 180' (DRC-1; 180'; conc 40): 86.6627%
% inhibition apPOL 180' (DRC-1; 180'; conc 80): 95.6515%
% inhibition Apo pol 5' (DRC-2; 5'; conc 2.5): 11%
% inhibition Apo pol 5' (DRC-2; 5'; conc 5): 7%
% inhibition Apo pol 5' (DRC-2; 5'; conc 10): 20%
% inhibition Apo pol 5' (DRC-2; 5'; conc 20): 43%
% inhibition Apo pol 5' (DRC-2; 5'; conc 40): 54%
% inhibition Apo pol 5' (DRC-2; 5'; conc 80): 54%
% inhibition Apo pol 5' (DRC-2; 5'; concentration 5): 7%
% inhibition Apo pol 5' (DRC-2; 5'; concentration 40): 54%
% inhibition Apo pol 5' (DRC-2; 5'; concentration 80): 54%
% inhibition Apol 40' (DRC-2; 40'; conc 2.5): 12%
% inhibition Apol 40' (DRC-2; 40'; conc 5): 7%
% inhibition Apol 40' (DRC-2; 40'; conc 10): 24%
% inhibition Apol 40' (DRC-2; 40'; conc 20): 54%
% inhibition Apol 40' (DRC-2; 40'; conc 40): 72%
% inhibition Apol 40' (DRC-2; 40'; conc 80): 75%
% inhibition Apol 40' (DRC-2; 40'; concentration 2.5): 12%
% inhibition Apol 40' (DRC-2; 40'; concentration 5): 7%
% inhibition Apol 40' (DRC-2; 40'; concentration 20): 54%
% inhibition ApPOL 90' (DRC-2; 90'; conc 2.5): 12%
% inhibition ApPOL 90' (DRC-2; 90'; conc 5): 6.55%
% inhibition ApPOL 90' (DRC-2; 90'; conc 10): 23%
% inhibition ApPOL 90' (DRC-2; 90'; conc 20): 56%
% inhibition ApPOL 90' (DRC-2; 90'; conc 40): 76%
% inhibition ApPOL 90' (DRC-2; 90'; conc 80): 79%
% inhibition ApPOL 90' (DRC-2; 90'; concentration 2.5): 12%
% inhibition ApPOL 90' (DRC-2; 90'; concentration 40): 76%
% inhibition apPOL 180' (DRC-2; 180'; conc 2.5): 9%
% inhibition apPOL 180' (DRC-2; 180'; conc 5): 4%
% inhibition apPOL 180' (DRC-2; 180'; conc 10): 17%
% inhibition apPOL 180' (DRC-2; 180'; conc 20): 49%
% inhibition apPOL 180' (DRC-2; 180'; conc 40): 76%
% inhibition apPOL 180' (DRC-2; 180'; conc 80): 81%
% inhibition apPOL 180' (DRC-2; 180'; concentration 40): 76%
DNA Pol (primary screen value, "DNA Pol"; 90 min, 10 µM): 26

O=C(Cc1cccs1)N1CCN(c2nc(CN3CCOCC3)cs2)CC1 [Molecule 35]
pIC50 [1]: 4.95

COc1ccc(/C=C/c2cc(C(=O)O)c3ccccc3n2)cc1 [Molecule 5]
pIC50 [1]: 5.41

CCOC(=O)C(NCc1ccco1)(NC(=O)c1ccco1)C(F)(F)F (centres unmarked) [KU0276119]
DNA Pol (186 hits, value of the hit list (primary screen); unit not given; 90 min, 10 µM): 69
% inhibition Apo pol 10' (DRC-1; 10'; concentration 2.5): -0.8683%
% inhibition Apo pol 10' (DRC-1; 10'; concentration 5): 4.257%
% inhibition Apo pol 10' (DRC-1; 10'; concentration 10): 15.6994%
% inhibition Apo pol 10' (DRC-1; 10'; concentration 20): 30.4809%
% inhibition Apo pol 10' (DRC-1; 10'; concentration 40): 51.156%
% inhibition Apo pol 10' (DRC-1; 10'; concentration 80): 69.3233%
% inhibition Apol 90' (DRC-1; 90'; concentration 2.5): -1.328%
% inhibition Apol 90' (DRC-1; 90'; concentration 5): -2.247%
% inhibition Apol 90' (DRC-1; 90'; concentration 10): 3.449%
% inhibition Apol 90' (DRC-1; 90'; concentration 20): 14.6625%
% inhibition Apol 90' (DRC-1; 90'; concentration 40): 31.3437%
% inhibition Apol 90' (DRC-1; 90'; concentration 80): 52.4823%
% inhibition apPOL 180' (DRC-1; 180'; concentration 2.5): -2.149%
% inhibition apPOL 180' (DRC-1; 180'; concentration 5): -6.365%
% inhibition apPOL 180' (DRC-1; 180'; concentration 10): -5.1582%
% inhibition apPOL 180' (DRC-1; 180'; concentration 20): 2.395%
% inhibition apPOL 180' (DRC-1; 180'; concentration 40): 15.7005%
% inhibition apPOL 180' (DRC-1; 180'; concentration 80): 35.8359%
% inhibition Apo pol 5' (DRC-2, 5', concentration 2.5): 3%
% inhibition Apo pol 5' (DRC-2, 5', concentration 5): 8.49%
% inhibition Apo pol 5' (DRC-2, 5', concentration 10): 20%
% inhibition Apo pol 5' (DRC-2, 5', concentration 20): 31%
% inhibition Apo pol 5' (DRC-2, 5', concentration 40): 44%
% inhibition Apo pol 5' (DRC-2, 5', concentration 80): 52%
% inhibition Apol 40' (DRC-2, 40', concentration 2.5): 3%
% inhibition Apol 40' (DRC-2, 40', concentration 5): 5%
% inhibition Apol 40' (DRC-2, 40', concentration 10): 12%
% inhibition Apol 40' (DRC-2, 40', concentration 20): 24%
% inhibition Apol 40' (DRC-2, 40', concentration 40): 41%
% inhibition Apol 40' (DRC-2, 40', concentration 80): 57%
% inhibition ApPOL 90' (DRC-2, 90', concentration 2.5): 1.27%
% inhibition ApPOL 90' (DRC-2, 90', concentration 5): 0%
% inhibition ApPOL 90' (DRC-2, 90', concentration 10): 7%
% inhibition ApPOL 90' (DRC-2, 90', concentration 20): 17%
% inhibition ApPOL 90' (DRC-2, 90', concentration 40): 36%
% inhibition ApPOL 90' (DRC-2, 90', concentration 80): 54%
% inhibition apPOL 180' (DRC-2, 180', concentration 2.5): -2.49%
% inhibition apPOL 180' (DRC-2, 180', concentration 5): -7%
% inhibition apPOL 180' (DRC-2, 180', concentration 10): -2%
% inhibition apPOL 180' (DRC-2, 180', concentration 20): 2.7%
% inhibition apPOL 180' (DRC-2, 180', concentration 40): 21%
% inhibition apPOL 180' (DRC-2, 180', concentration 80): 45%
% inhibition Apo pol 5' (DRC-2; 5'; concentration 2.5): 3%
% inhibition Apol 40' (DRC-2; 40'; concentration 2.5): 3%
DNA Pol (primary screen value, 'DNA Pol' only; 90 min, 10 µM): 69

O=C(NNC(=O)C(F)(F)Sc1ccccc1)c1ccsc1 [Molecule 68, O=C(C(Sc1ccccc1)(F)F)NNC(=O)c1cscc1]
DNA Pol ('DNA Pol'; screening value, unit not given; 90 min, 10 µM): 82
% inhibition Apo pol 10' (DRC-1; 10'; concentration 2.5): 18.9007%
% inhibition Apo pol 10' (DRC-1; 10'; concentration 5): 22.6096%
% inhibition Apo pol 10' (DRC-1; 10'; concentration 10): 35.002%
% inhibition Apo pol 10' (DRC-1; 10'; concentration 20): 47.6682%
% inhibition Apo pol 10' (DRC-1; 10'; concentration 40): 67.1681%
% inhibition Apo pol 10' (DRC-1; 10'; concentration 80): 81.7014%
% inhibition Apol 90' (DRC-1; 90'; concentration 2.5): -2.054%
% inhibition Apol 90' (DRC-1; 90'; concentration 5): 4.132%
% inhibition Apol 90' (DRC-1; 90'; concentration 10): 13.2706%
% inhibition Apol 90' (DRC-1; 90'; concentration 20): 25.6835%
% inhibition Apol 90' (DRC-1; 90'; concentration 40): 44.8257%
% inhibition Apol 90' (DRC-1; 90'; concentration 80): 64.9924%
% inhibition apPOL 180' (DRC-1; 180'; concentration 2.5): -9.701%
% inhibition apPOL 180' (DRC-1; 180'; concentration 5): -6.4745%
% inhibition apPOL 180' (DRC-1; 180'; concentration 10): 2.016%
% inhibition apPOL 180' (DRC-1; 180'; concentration 20): 13.4425%
% inhibition apPOL 180' (DRC-1; 180'; concentration 40): 32.4259%
% inhibition apPOL 180' (DRC-1; 180'; concentration 80): 53.4351%
% inhibition Apo pol 5' (DRC-2, 5', concentration 2.5): 9%
% inhibition Apo pol 5' (DRC-2, 5', concentration 5): 10%
% inhibition Apo pol 5' (DRC-2, 5', concentration 10): 23%
% inhibition Apo pol 5' (DRC-2, 5', concentration 20): 31%
% inhibition Apo pol 5' (DRC-2, 5', concentration 40): 47%
% inhibition Apo pol 5' (DRC-2, 5', concentration 80): 58%
% inhibition Apol 40' (DRC-2, 40', concentration 2.5): 5%
% inhibition Apol 40' (DRC-2, 40', concentration 5): 7%
% inhibition Apol 40' (DRC-2, 40', concentration 10): 19%
% inhibition Apol 40' (DRC-2, 40', concentration 20): 27%
% inhibition Apol 40' (DRC-2, 40', concentration 40): 48%
% inhibition Apol 40' (DRC-2, 40', concentration 80): 64%
% inhibition ApPOL 90' (DRC-2, 90', concentration 2.5): 2.82%
% inhibition ApPOL 90' (DRC-2, 90', concentration 5): 2.82%
% inhibition ApPOL 90' (DRC-2, 90', concentration 10): 15%
% inhibition ApPOL 90' (DRC-2, 90', concentration 20): 22%
% inhibition ApPOL 90' (DRC-2, 90', concentration 40): 44%
% inhibition ApPOL 90' (DRC-2, 90', concentration 80): 62%
% inhibition apPOL 180' (DRC-2, 180', concentration 2.5): -3.39%
% inhibition apPOL 180' (DRC-2, 180', concentration 5): -3.25%
% inhibition apPOL 180' (DRC-2, 180', concentration 10): 5%
% inhibition apPOL 180' (DRC-2, 180', concentration 20): 12%
% inhibition apPOL 180' (DRC-2, 180', concentration 40): 32%
% inhibition apPOL 180' (DRC-2, 180', concentration 80): 55%
% inhibition Apol 40' (conc 2.5 (unit not given); 40'; DRC-2): 5%
% inhibition ApPOL 90' (conc 2.5 (unit not given); 90'; DRC-2): 2.82%
% inhibition ApPOL 90' (conc 5 (unit not given); 90'; DRC-2): 2.82%
% inhibition apPOL 180' (conc 10 (unit not given); 180'; DRC-2): 5%
DNA Pol (primary screen hit value, DNA Pol (186 hits); 90 min, 10 µM): 82
